# Assay results published in ChEMBL document CHEMBL4145689, “Tailoring the Substitution Pattern on 1,3,5-Triazine for Targeting Cyclooxygenase-2: Discovery and Structure-Activity Relationship of Triazine-4-Aminophenylmorpholin-3-one Hybrids that Reverse Algesia and Inflammation in Swiss Albino Mice” (J Med Chem, 2018).
# The source made the active and inactive calls. No cut-off for these calls is given here.
# Legend:
# [1] = molecular target: T1, Prostaglandin G/H synthase 1 (Ovis aries, UniProt P05979); assay: Inhibition of ovine COX1 pre-incubated for 10 mins before arachidonic acid addition and measured after 2 mins by EIA method
# T1 sequence (P05979 whole entry): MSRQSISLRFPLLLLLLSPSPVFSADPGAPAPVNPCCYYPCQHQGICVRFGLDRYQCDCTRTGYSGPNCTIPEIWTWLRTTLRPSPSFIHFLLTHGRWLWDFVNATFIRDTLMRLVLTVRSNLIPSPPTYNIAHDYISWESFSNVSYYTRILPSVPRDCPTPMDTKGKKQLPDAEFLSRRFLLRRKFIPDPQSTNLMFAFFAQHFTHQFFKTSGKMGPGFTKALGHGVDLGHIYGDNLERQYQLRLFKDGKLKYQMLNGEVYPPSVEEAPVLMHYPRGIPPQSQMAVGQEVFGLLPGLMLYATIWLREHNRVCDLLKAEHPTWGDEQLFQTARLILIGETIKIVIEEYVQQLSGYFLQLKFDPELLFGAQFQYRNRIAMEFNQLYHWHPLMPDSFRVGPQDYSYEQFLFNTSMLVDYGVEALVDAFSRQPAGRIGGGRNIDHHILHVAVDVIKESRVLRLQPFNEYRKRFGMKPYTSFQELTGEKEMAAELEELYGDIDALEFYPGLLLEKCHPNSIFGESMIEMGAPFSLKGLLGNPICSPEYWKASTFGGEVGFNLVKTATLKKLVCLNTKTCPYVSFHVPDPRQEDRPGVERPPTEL
# [2] = molecular target: Prostaglandin G/H synthase 1 (Homo sapiens, UniProt P23219); assay: Inhibition of COX1 in human whole blood assessed as A23187-stimulated TxB2 production at 1 uM pre-incubated for 60 mins before A23187 addition and measured after 30 mins by ELISA (reference value: 2 ng/ml); details: 0.5 h
# Sequence of Prostaglandin G/H synthase 1 (Homo sapiens, UniProt P23219) (P23219 whole entry): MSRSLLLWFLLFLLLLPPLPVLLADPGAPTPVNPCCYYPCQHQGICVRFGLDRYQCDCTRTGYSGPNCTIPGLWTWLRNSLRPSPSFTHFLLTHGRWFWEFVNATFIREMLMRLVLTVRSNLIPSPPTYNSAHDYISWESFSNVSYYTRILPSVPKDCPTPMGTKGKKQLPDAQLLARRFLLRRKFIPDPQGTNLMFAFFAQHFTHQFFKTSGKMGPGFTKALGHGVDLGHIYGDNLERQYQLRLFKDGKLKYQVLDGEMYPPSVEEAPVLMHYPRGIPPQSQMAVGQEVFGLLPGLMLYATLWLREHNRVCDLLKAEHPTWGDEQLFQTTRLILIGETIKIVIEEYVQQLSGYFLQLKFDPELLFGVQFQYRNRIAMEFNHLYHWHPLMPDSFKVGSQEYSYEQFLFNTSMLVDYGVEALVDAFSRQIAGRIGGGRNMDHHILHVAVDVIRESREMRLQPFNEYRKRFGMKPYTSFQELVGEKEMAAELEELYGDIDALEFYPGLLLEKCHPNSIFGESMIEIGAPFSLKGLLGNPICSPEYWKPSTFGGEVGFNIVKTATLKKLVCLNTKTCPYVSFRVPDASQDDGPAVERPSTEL
# Mus musculus [3] = assay: Analgesic activity in Swiss albino mouse assessed as inhibition of acetic acid-induced writhings at 5 mg/kg, ip measured 30 mins post acetic acid challenge; assay type: functional; details: 0.5 h
# Mus musculus [4] = assay: Analgesic activity in Swiss albino mouse assessed as inhibition of acetic acid-induced writhings at 10 mg/kg, ip measured 30 mins post acetic acid challenge; assay type: functional; details: 0.5 h
# Mus musculus [5] = assay: Analgesic activity in ip dosed Swiss albino mouse assessed as inhibition of acetic acid-induced writhings measured 30 mins post acetic acid challenge; assay type: functional; details: 0.5 h
# Mus musculus [6] = assay: Anti-inflammatory activity in Swiss albino mouse model of carrageenan-induced-paw edema assessed as inhibition of paw edema at 5 mg/kg, ip after 3 hrs; assay type: functional
# Mus musculus [7] = assay: Analgesic activity in substance P pre-treated Swiss albino mouse assessed as inhibition of acetic acid-induced writhings at 5 mg/kg, ip measured 30 mins post acetic acid challenge; assay type: functional, organism-based
# [8] = molecular target: T2, Polyunsaturated fatty acid 5-lipoxygenase (Homo sapiens, UniProt P09917); assay: Inhibition of 5-LOX (unknown origin)
# T2 sequence (P09917 whole entry): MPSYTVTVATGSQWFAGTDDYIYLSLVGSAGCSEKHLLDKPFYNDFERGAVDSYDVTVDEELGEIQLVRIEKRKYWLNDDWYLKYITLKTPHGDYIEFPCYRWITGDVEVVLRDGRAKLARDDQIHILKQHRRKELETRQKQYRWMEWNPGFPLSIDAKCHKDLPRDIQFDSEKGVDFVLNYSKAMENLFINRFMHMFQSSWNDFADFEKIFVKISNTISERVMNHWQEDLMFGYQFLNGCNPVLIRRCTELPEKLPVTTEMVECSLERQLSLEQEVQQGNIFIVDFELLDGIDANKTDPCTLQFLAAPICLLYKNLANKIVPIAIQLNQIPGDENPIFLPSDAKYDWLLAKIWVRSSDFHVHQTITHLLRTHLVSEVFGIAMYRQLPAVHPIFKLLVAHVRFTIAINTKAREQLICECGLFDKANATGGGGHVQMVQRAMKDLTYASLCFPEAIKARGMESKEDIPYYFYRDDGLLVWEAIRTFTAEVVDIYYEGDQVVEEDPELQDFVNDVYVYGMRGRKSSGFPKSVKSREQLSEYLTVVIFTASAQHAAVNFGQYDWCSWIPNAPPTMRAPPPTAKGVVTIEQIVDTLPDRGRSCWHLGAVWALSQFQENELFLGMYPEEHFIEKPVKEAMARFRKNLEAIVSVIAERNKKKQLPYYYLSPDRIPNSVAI
# Mus musculus [9] = assay: Analgesic activity in […] pre-treated Swiss albino mouse assessed as inhibition of acetic acid-induced writhings at 5 mg/kg, ip measured 30 mins post acetic acid challenge; assay type: functional, organism-based
# Mus musculus [10] = assay: Acute toxicity in Swiss albino mouse assessed as induction of mortality at 50 to 2000 mg/kg, po measured over 14 days post dose; assay type: organism-based; details: in vivo, 336 h
# Mus musculus [11] = assay: Acute toxicity in Swiss albino mouse assessed as induction of behavioural impairment at 50 to 2000 mg/kg, po measured over 14 days post dose; assay type: organism-based; details: in vivo, 336 h
# Mus musculus [12] = assay: Acute toxicity in Swiss albino mouse assessed as induction of renal lesions at 50 to 2000 mg/kg, po measured over 14 days post dose by H and E staining based microscopy; assay type: organism-based; details: in vivo, 336 h
# Mus musculus [13] = assay: Acute toxicity in Swiss albino mouse assessed as induction of myocardial lesions at 50 to 2000 mg/kg, po measured over 14 days post dose by H and E staining based microscopy; assay type: organism-based; details: in vivo, 336 h
# Mus musculus [14] = assay: Acute toxicity in Swiss albino mouse assessed as induction of hepatic lesions at 50 to 2000 mg/kg, po measured over 14 days post dose by H and E staining based microscopy; assay type: organism-based; details: in vivo, 336 h
# Mus musculus [15] = assay: Acute toxicity in Swiss albino mouse assessed as induction of congestion in renal tissue at 50 to 2000 mg/kg, po measured over 14 days post dose by H and E staining based microscopy; assay type: organism-based; details: in vivo, 336 h
# Mus musculus [16] = assay: Acute toxicity in Swiss albino mouse assessed as induction of mesangium shrinkage at 50 to 2000 mg/kg, po measured over 14 days post dose by H and E staining based microscopy; assay type: organism-based; details: in vivo, 336 h
# Mus musculus [17] = assay: Acute toxicity in Swiss albino mouse assessed as induction of increase in capsular space at 50 to 2000 mg/kg, po measured over 14 days post dose by H and E staining based microscopy; assay type: organism-based; details: in vivo, 336 h
# [18] = molecular target: T3, Prostaglandin G/H synthase 2 (Homo sapiens) (UniProt P35354)
# T3 sequence (whole entry): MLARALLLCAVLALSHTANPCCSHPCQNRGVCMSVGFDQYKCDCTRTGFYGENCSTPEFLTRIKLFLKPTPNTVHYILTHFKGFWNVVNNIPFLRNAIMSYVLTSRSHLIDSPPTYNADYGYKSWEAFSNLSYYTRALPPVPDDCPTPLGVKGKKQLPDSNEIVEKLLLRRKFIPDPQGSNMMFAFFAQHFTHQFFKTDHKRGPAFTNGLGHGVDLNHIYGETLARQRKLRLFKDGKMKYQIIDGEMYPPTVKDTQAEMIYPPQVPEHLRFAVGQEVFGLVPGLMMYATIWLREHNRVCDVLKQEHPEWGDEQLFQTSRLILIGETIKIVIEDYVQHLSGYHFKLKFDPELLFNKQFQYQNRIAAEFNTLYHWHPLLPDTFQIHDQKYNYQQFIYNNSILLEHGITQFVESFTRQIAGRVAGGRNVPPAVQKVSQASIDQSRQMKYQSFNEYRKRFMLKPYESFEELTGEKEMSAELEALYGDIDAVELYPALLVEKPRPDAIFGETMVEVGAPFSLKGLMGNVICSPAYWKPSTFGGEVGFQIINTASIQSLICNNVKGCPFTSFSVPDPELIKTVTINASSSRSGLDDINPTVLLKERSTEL
# Description: Binding affinity to human COX2 assessed as binding constant by ITC
# [19] = molecular target: T3, Prostaglandin G/H synthase 2 (Homo sapiens); details: 10 uM
# Mus musculus [20] = assay: Anti-inflammatory activity in Swiss albino mouse model of carrageenan-induced-paw edema assessed as inhibition of paw edema at 10 mg/kg, ip after 3 hrs; assay type: functional
SMILES,IC50 [1] [µM],inhibition in vivo at 5 mg/kg (Mus musculus [3]) [%],inhibition in vivo at 10 mg/kg (Mus musculus [4]) [%],other results
O=C1COCCN1c1ccc(Nc2nc(Cl)nc(N3CCCC3)n2)cc1,10,87,93,Activity [2]: 1.9 ng/mL; ED50 (Mus musculus [5]): 2.2 mg/kg; inhibition in vivo at 5 mg/kg (Mus musculus [6]): 38%; Activity (Mus musculus [7]): inactive; IC50 [8]: > 10 µM; inhibition (Mus musculus [9]): Active; Activity (Mus musculus [10]): Non-Toxic; Activity (Mus musculus [11]): Non-Toxic; Activity (Mus musculus [12]): Non-Toxic; Activity (Mus musculus [13]): Non-Toxic; Activity (Mus musculus [14]): Non-Toxic; Activity (Mus musculus [15]): Toxic; Activity (Mus musculus [16]): Toxic; Activity (Mus musculus [17]): Toxic; Ka [18]: 5.37 ×10⁵ /M; Ka [19]: 2.54 ×10⁵ /M
O=C(NCCOc1nc(Cl)nc(Nc2ccc(N3CCOCC3=O)cc2)n1)c1ccc(Cl)s1,> 10,,,
NCCOc1nc(Cl)nc(Nc2ccc(N3CCOCC3=O)cc2)n1,> 10,,,
[N-]=[N+]=NCCOc1nc(Cl)nc(Nc2ccc(N3CCOCC3=O)cc2)n1,> 10,,,
O=C(NCCOc1nc(Cl)nc(Nc2ccc(N3CCOCC3=O)cc2)n1)C1CCCN1C(=O)OCc1ccccc1 (configuration not stated),> 10,,,
COc1ccc2c(c1)c(CC(=O)O)c(C)n2C(=O)c1ccc(Cl)cc1 [INDOMETHACIN],,,63,inhibition in vivo at 10 mg/kg (Mus musculus [20]): 30%
Cc1ccc(S(=O)(=O)NCCOc2nc(Cl)nc(Nc3ccc(N4CCOCC4=O)cc3)n2)cc1,> 10,,,
Cc1ccc(-c2cc(C(F)(F)F)nn2-c2ccc(S(N)(=O)=O)cc2)cc1 [CELECOXIB],,62,,inhibition in vivo at 5 mg/kg (Mus musculus [6]): 33%
COC(=O)C(N)Cc1ccc(Oc2nc(Cl)nc(Nc3ccc(N4CCOCC4=O)cc3)n2)cc1 (configuration not stated),> 10,,,
O=C1COCCN1c1ccc(Nc2nc(Cl)nc(N3CCOCC3)n2)cc1,> 10,,,

# The next lines start with results.
IC50 [1] [µM],SMILES,inhibition in vivo at 5 mg/kg (Mus musculus [3]) [%],inhibition in vivo at 10 mg/kg (Mus musculus [4]) [%],other results
> 10,COc1ccc(Nc2nc(Cl)nc(Nc3ccc(N4CCOCC4=O)cc3)n2)cc1,47,79,
> 10,O=C1COCCN1c1ccc(Nc2nc(Cl)nc(Nc3ccc(Cl)cc3)n2)cc1,79,90.2,Activity [2]: 1.85 ng/mL; ED50 (Mus musculus [5]): 1.9 mg/kg; inhibition in vivo at 5 mg/kg (Mus musculus [6]): 28%
5,O=C1COCCN1c1ccc(Nc2nc(Nc3ccc(Cl)cc3)nc(N3CCOCC3)n2)cc1,,,
> 10,Cc1ccc(Nc2nc(Cl)nc(Nc3ccc(N4CCOCC4=O)cc3)n2)cc1,,,
> 10,Nc1nc(Cl)nc(Nc2ccc(N3CCOCC3=O)cc2)n1,67,74,Activity [2]: 1.68 ng/mL
> 10,O=C1COCCN1c1ccc(Nc2nc(Cl)nc(OCCCl)n2)cc1,,,
50,O=C1COCCN1c1ccc(Nc2nc(Cl)nc(Nc3ccc(Br)cc3)n2)cc1,,,
> 10,O=C1COCCN1c1ccc(Nc2nc(Cl)nc(NCc3ccccc3)n2)cc1,,,
10,O=C1COCCN1c1ccc(Nc2nc(Cl)nc(Nc3ccc(O)cc3)n2)cc1,56,68,Activity [2]: 1.64 ng/mL
> 10,O=C1COCCN1c1ccc(Nc2nc(Cl)nc(Cl)n2)cc1,,,
> 10,O=C1COCCN1c1ccc(Nc2nc(Cl)nc(N3CCN(c4ccccc4)CC3)n2)cc1,,,
> 10,O=C1COCCN1c1ccc(Nc2nc(Cl)nc(Nc3ccccc3)n2)cc1,76,83,Activity [2]: 1.7 ng/mL
> 10,O=C(NCCOc1nc(Cl)nc(Nc2ccc(N3CCOCC3=O)cc2)n1)c1ccccc1F,,,
> 10,O=C1COCCN1c1ccc(Nc2nc(Cl)nc(NC3CCCCC3)n2)cc1,56,81,
